Data as given in article PMC5610309, “In vivo target exploration of apidaecin based on Acquired Resistance induced by Gene Overexpression (ARGO assay)” (Scientific Reports, 2017).
Where no end group is shown, it is not given here. [ ]: non-standard residue; d: D form.

How the values were obtained:
[1] = system: enoyl-ACP reductase (FabI); experiment: ARGO assay, positive control, FabI-overexpressing E. coli; assay type: cell-based, Escherichia coli; conditions: 250 nM triclosan; increasing IPTG (Fig. S2)
Description: IPTG Concentration / μM IPTG Concentartion / μM
Figure S2. Acquired resistance assay induced by overexpression of target proteins. A:
concentration. Black line: no triclosan (OD Tc(-)). Gray line: 250 nM triclosan (OD Tc(+)).
overexpression. […] Black line: no
trimethoprim. Gray line: 125 μM trimethoprim. D: The degree of resistance against

[2] = system: peptide chain release factor 1 (PrfA); experiment: ARGO assay, apidaecin resistance of PrfA-overexpressing E. coli (ASKA clone); assay type: cell-based, Escherichia coli; conditions: 6.25 μM apidaecin; E. coli JM109 ASKA clone, IPTG-induced; 30 °C, 18 h; OD595; three trials
Description: (§4) The recombinant E. coli strain JM109 harboring pCA24N derivatives were grown on 2 mL LB medium containing 30 µg/mL chloramphenicol in a test tube, with reciprocal shaking at 175 rpm at 37 °C for 18 h. A total of 80 μL culture medium was transferred into fresh 2 mL LB medium containing 30 µg/mL chloramphenicol and different concentrations of IPTG (see Supplementary Information for detail), and further incubated at 37 °C with until the OD at 600 nm reached 0.4. The pre-culture was diluted 10^5 times with PB medium containing 30 µg/mL chloramphenicol so that the initial cell density was approximately 1000 colony forming units/mL. Then a 50 µL aliquot was combined with a 50 µL mixture of apidaecin and IPTG (final concentration of apidaecin was 6.25 µM). As a control, 50 µL IPTG and 50 µL sterilized water were added, respectively. The cells were cultivated in 96-well plates using a microplate shaker (BioShaker M-BR-024 Taitec, Shizuoka, Japan) with shaking at 1200 rpm at 30 °C for 18 h. […] Cell growth in a 96-well plate was optically measured using a microplate reader (iMark Microplate Absorbance Reader, Bio-rad) at a wavelength of 595 nm. The degree of resistance against apidaecin was defined as the OD obtained with the addition of IPTG and apidaecin divided by the OD with the addition of IPTG only.1 Degreeofresistance=ODwithapidaecinandIPTG/ODwithIPTG […]

[3] = system: lacZ expression in PURE system (PrfA-dependent termination); experiment: Inhibitory assay using the in vitro transcription-translation system (PURE system); assay type: biochemical; conditions: 200 μM apidaecin; for inhibition ratio of lacZ (UAG) expression: PrfB omitted, 37 °C, 3 h, immunoblot
Description: The PCR products were purified by agarose gel extraction and used for second PCR to add the T7 promoter sequence using a forward primer 2, […], and aforementioned reverse primers. The amplified DNA was treated with chloroform/phenol/isoamyl alcohol, concentrated by ethanol precipitation, and diluted to 100 ng/μl using RNase free water. The DNA solution was used for in vitro transcription-translation reaction using PUREfrex ver 1.0 (GeneFrontier Corp., Chiba, Japan). The solution I, II, and III provided by the kit protocol was combined with the apidaecin solution to contain 0 to 200 μM apidaecin. […] Ten microliter solution I, 1 μL solution II, 1 μL solution III, 0.1 μL 6 μM T7 RNA polymerase, 0.5 μL 4 or 0.8 μM RF1, 0.5 μL 4 μM RF3, 0.5 μL 40 μM RRF, and 0–4 μL 1 mM apidaecin were combined and diluted to 19 μL with RNAse free water. The mixture was incubated at room temperature for 15 min, and 1 μL template DNA (LacZ [UAG]) was added. Then the mixture was further incubated at 37 °C from 3 h. Then 1 μL reaction mixture was used for immnoblot analysis.

[4] = system: lacZ reporter gene expression in E. coli MG1655; experiment: Inhibition assay of LacZ expression (X-gal chromogenesis); assay type: cell-based, Escherichia coli; conditions: 500 μM; E. coli treated 1 h, then IPTG; ΔOD595 with and without X-gal; three trials
Description: (§1) The 96-well plate culture was started as well as Procedure B with a modification that the cells were resuspended in 1 mL PB medium containing 100 μg/ml 5-bromo-4-chloro-3-indolyl-β-D-galactopyranoside (X-gal). After 60 min, 0.1 mM IPTG was added and the plate was further incubated for 120 min. The OD of the culture in the test tube was measured using a UV-VIS spectrophotometer (Genesys20, Thermo Scientific, Waltham, MA, USA) at 600 nm, and OD in the 96-well plate was monitored at 595 nm using an iMark Microplate Absorbance Reader (Biorad, Hercules, CA, USA).
E. coli MG1655 cells were cultivated using Procedure D. The activity of LacZ was estimated based on the subtraction of ODs at 595 nm obtained with and without supplement of X-gal.

[5] = system: lacZ mRNA transcription in E. coli MG1655; experiment: Quantification of lacZ mRNA by real-time reverse transcriptase-PCR; assay type: cell-based, Escherichia coli; conditions: 500 μM and 0.1 mM IPTG; quantitative real-time PCR
Description: (§2) The 96-well plate culture was started following Procedure B. After 60 min, 0.1 mM IPTG was added and the plate was incubated for an additional 60 min.
The E. coli strain MG1655 from Procedure C were harvested by centrifugation at 4 °C, and total RNA was extracted using Isogen (Nippongene, Toyama, Japan) according to the manufacturer’s instructions. The reverse transcriptase reaction was performed using PrimeScript RT-PCR Kit (Takara, Tokyo, Japan) based on the provided protocol. The lacZ fragment was amplified using a pair of primers: lacZ_RTf1, […] and lacZ_RTr1, with […] used as the standard. The standard curve was made in the range of 10^−3 to 10^−7 ng DNA/μL. A total of 6 μL reverse transcriptase reaction product was combined with 10 μL TaqMan Gene Expression Master Mix (Applied Biosystems, Foster City, CA, USA), 1 μL lacZ_RTf1, 1 μL lacZ_RTr1, and 2 μL TaqMan probe lacZ_2116, […], which was bound to fluorescein as a reporter and NFQ-MGB as a quencher. The samples were prepared in triplicate and transferred to a MicroAmp Fast Optical 48-well Reaction Plate (Applied Biosystems) and sealed with a MicroAmp Optical 48-well Adhesive Film. The plate was centrifuged at 1,970 g for 10 min at 4 °C. Real-time PCR (qPCR) was performed using the StepOne real-time PCR system (Applied Biosystems). […]

[6] = system: β-galactosidase protein synthesis in E. coli MG1655; experiment: Immunoblot analysis of native LacZ; assay type: cell-based, Escherichia coli; conditions: 500 μM and 0.1 mM IPTG
Description: as §2
(§3) The E. coli strain MG1655 from Procedure C were harvested and suspended in lysis buffer containing 50 mM sodium phosphate (pH 7.0), 10 mM imidazol, and 300 mM NaCl. The OD was normalized using lysis buffer, after which the crude extract was prepared using sonication on ice 5 s × 5 times. Anti-β-galactosidase antibody (Biotin) ab6645 was purchased from abcam (Cambridge, UK) and used at a 10^5-fold dilution. Immun-Star Goat Anti-Rabbit (GAR)-HRP Conjugate (Biorad) was used as the secondary antibody. Bands were detected using the ECL Select Western Blotting Detection Reagent (GE Healthcare, Little Chalfont, UK) and were recorded on ChemiDox XRS (Biorad). Band density was quantified using ImageJ software.

[7] = system: E. coli; experiment: Growth of E. coli in 96-well plate culture with antimicrobial agent; assay type: cell-based, Escherichia coli; conditions: 500 μM
Description: E. coli were grown on 2 mL LB medium in a test tube containing 10 g/L trypton, 5 g/L Bacto yeast extract, and 10 g/L sodium chloride, with reciprocal shaking at 175 rpm at 30 °C for 14 h. A total of 20 μL culture medium was transferred into 2 mL fresh LB medium and incubated at 30 °C until the OD at 600 nm reached 0.2.
The cells from Procedure A were washed with 2 mL PB medium containing 10 g/L trypton and 9 g/L sodium chloride, and re-suspended in 1 mL PB medium. A total of 80 μL medium was combined with 20 μL antimicrobial agents, followed by incubation in a 96-well plate at 30 °C for 4 h with shaking at 1200 rpm.
as §1

[8] = system: lacZ expression in MG1655(lacZ-UAA), MG1655(lacZ-UGA), MG1655(lacZ-UAG); experiment: In vivo inhibitory assay of lacZ expression with different stop codons (immunoblot); assay type: cell-based, Escherichia coli; conditions: 250 and 500 μM apidaecin
Description: as §3
The C-terminal region of the lacZ gene in E. coli chromosomal DNA was replaced with three DNA fragments containing three stop codons (Fig. S4). The DNA fragments including a flippase recognition target (FRT) cassette with a kanamycin-resistant gene, and the C-terminal sequence of the lacZ gene with three stop codons, were amplified from pKD13 using three forward primers: […], […], and […] (stop codons are underlined), and a reverse primer: […]. The template DNA in the PCR products was removed by DpnI treatment. […] Ampicilline-sensitive colonies were chosen and recombination in their chromosomal DNA was evaluated by colony PCR and sequencing. […]

[9] = system: PrfB; experiment: ARGO assay, apidaecin resistance of PrfB-overexpressing E. coli (ASKA clone); assay type: cell-based, Escherichia coli; conditions: 6.25 μM apidaecin; E. coli JM109 ASKA clone, IPTG-induced; 30 °C, 18 h; OD595
Description: as §4

[10] = system: E. coli; conditions: relative to wild type apidaecin Ho +; cited from earlier work
[11] = system: dihydrofolate reductase (FolA); conditions: 125 μM trimethoprim; increasing IPTG (Fig. S2)
Description: as §4

For Oc1cc(Cl)ccc1Oc1ccc(Cl)cc1Cl [triclosan], the “sensitivity of E. coli upon overexpression of FabI” value [1] was “reduced the sensitivity”.

With “GNNRPVYIPQPRPPHPRL [apidaecin, Apidaecin Ib, proline-rich AMP isolated from the hemolymph of honeybees; purchased from Bex Corp]” the “degree of resistance against apidaecin upon PrfA overexpression (OD with apidaecin and IPTG / OD with IPTG)” value [2] was “up to 80%”, the “inhibition efficiency of lacZ expression by stop codon” value ([3]; lacZ-UAA, lacZ-UGA, lacZ-UAG templates, UAG stop codon) was “most efficient inhibition” and the “inhibition ratio of lacZ (UAG) expression” value ([3]; low PrfA concentration (20 nM PrfA)) was 45%. The “inhibition ratio of lacZ (UAG) expression” value ([3]; standard PrfA concentration (100 nM PrfA)) was 21%, the “inhibition of β-galactosidase-mediated chromogenesis” value [4] was “almost completely inhibited” and the “influence on lacZ mRNA transcription” value [5] was “no significant influence”. The β-galactosidase protein synthesis [6] was “considerably diminished”, the “inhibition of cell growth” value ([7]; PB medium, 96-well plate, 30 °C, OD595, three trials) was “almost completely inhibited” and the “expression levels of whole proteins” value ([8]; SDS-PAGE, all three stop codon constructs) was “decreased expression levels of whole proteins”. The “degree of inhibition of lacZ expression, UAG stop codon versus other constructs” value ([8]; immunoblot anti-LacZ, UAG recognized only by PrfA) was “considerably stronger inhibition” and the “cell growth in the presence of apidaecin upon PrfB overexpression” value [9] was “did not promote cell growth”.

In the case of L18dL apidaecin 1b, the “antimicrobial effect against E. coli” value ([7]; data not shown) is reported as “no antimicrobial effect”.

For “L17D-L mutant of apidaecin Ho + (GKPRPQQVPPRPPHPR[dL])”, the “antibacterial activity toward E. coli compared to wild type peptide” value [10] is listed as 0.1 fold.

For COc1cc(Cc2cnc(N)nc2N)cc(OC)c1OC [trimethoprim], the “sensitivity of E. coli upon overexpression of FolA” value [11] was “reduced the sensitivity”.
